Measured values reported in the supplement of paper PMC10307832.

Tests used:
Assay in all cases: relative viability (nuclei count vs DMSO), 5 days (fraction); higher = more cells survive
[1] = compound: CO[C@H]1C[C@@H]2CC[C@@H](C)[C@@](O)(O2)C(=O)C(=O)N2CCCC[C@H]2C(=O)O[C@H]([C@H](C)C[C@@H]2CC[C@@H](OCCO)[C@H](OC)C2)CC(=O)[C@H](C)/C=C(\C)[C@@H](O)[C@@H](OC)C(=O)[C@H](C)C[C@H](C)/C=C/C=C/C=C/1C [Everolimus] + CC1(C)CCC(c2ccc(Cl)cc2)=C(CN2CCN(c3ccc(C(=O)NS(=O)(=O)c4ccc(N[C@H](CCN5CCOCC5)CSc5ccccc5)c(S(=O)(=O)C(F)(F)F)c4)cc3)CC2)C1 [Navitoclax] (partner 0.5 µM)
How it was run: (§1)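 One day after seeding in 1536-well plates, lung cancer cell lines were dosed by pin tool. Dosing was either single-drug or a fixed anchor-drug dose plus five library-drug doses (not always all listed) in √10 steps. After 5 days, nuclei were stained in one fix-and-stain step and counted on 4× images, and relative viability is the nuclei count of treated wells over that of vehicle wells, given as the median of duplicate plates.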

[2] = compound: CO[C@H]1C[C@@H]2CC[C@@H](C)[C@@](O)(O2)C(=O)C(=O)N2CCCC[C@H]2C(=O)O[C@H]([C@H](C)C[C@@H]2CC[C@@H](OCCO)[C@H](OC)C2)CC(=O)[C@H](C)/C=C(\C)[C@@H](O)[C@@H](OC)C(=O)[C@H](C)C[C@H](C)/C=C/C=C/C=C/1C [Everolimus] + CCNC(=O)c1noc(-c2cc(C(C)C)c(O)cc2O)c1-c1ccc(CN2CCOCC2)cc1 [Luminespib] (partner 0.01 µM)
How it was run: as §1

[3] = compound: CO[C@H]1C[C@@H]2CC[C@@H](C)[C@@](O)(O2)C(=O)C(=O)N2CCCC[C@H]2C(=O)O[C@H]([C@H](C)C[C@@H]2CC[C@@H](OCCO)[C@H](OC)C2)CC(=O)[C@H](C)/C=C(\C)[C@@H](O)[C@@H](OC)C(=O)[C@H](C)C[C@H](C)/C=C/C=C/C=C/1C [Everolimus] + COc1cc2c(Oc3ccc(NC(=O)C4(C(=O)Nc5ccc(F)cc5)CC4)cc3F)ccnc2cc1OCCCN1CCOCC1 [Foretinib] (partner 0.25 µM)
How it was run: as §1

[4] = compound: CO[C@H]1C[C@@H]2CC[C@@H](C)[C@@](O)(O2)C(=O)C(=O)N2CCCC[C@H]2C(=O)O[C@H]([C@H](C)C[C@@H]2CC[C@@H](OCCO)[C@H](OC)C2)CC(=O)[C@H](C)/C=C(\C)[C@@H](O)[C@@H](OC)C(=O)[C@H](C)C[C@H](C)/C=C/C=C/C=C/1C [Everolimus] + C[C@]1(O)C[C@@H](c2nc(-c3ccc4ccc(-c5ccccc5)nc4c3)c3c(N)nccn32)C1 [Linsitinib] (partner 1 µM)
How it was run: as §1

| Cell Line | relative viability ([1]; first compound 0.01 µM) | relative viability ([1]; first compound 0.03162 µM) | relative viability ([1]; first compound 0.1 µM) | relative viability ([1]; first compound 0.3162 µM) | relative viability ([1]; first compound 1 µM) | relative viability ([2]; first compound 0.01 µM) | relative viability ([2]; first compound 0.03162 µM) | relative viability ([2]; first compound 0.1 µM) | relative viability ([2]; first compound 0.3162 µM) | relative viability ([2]; first compound 1 µM) | relative viability ([3]; first compound 0.01 µM) | relative viability ([3]; first compound 0.03162 µM) | relative viability ([3]; first compound 0.1 µM) | relative viability ([3]; first compound 0.3162 µM) | relative viability ([3]; first compound 1 µM) | relative viability ([4]; first compound 0.01 µM) | relative viability ([4]; first compound 0.03162 µM) | relative viability ([4]; first compound 0.1 µM) | relative viability ([4]; first compound 0.3162 µM) | relative viability ([4]; first compound 1 µM) |
| --- | --- | --- | --- | --- | --- | --- | --- | --- | --- | --- | --- | --- | --- | --- | --- | --- | --- | --- | --- | --- |
| LCLC-97TM1 | 0.417 | 0.388 | 0.255 | 0.217 | 0.239 | 0.76 | 0.743 | 0.549 | 0.581 | 0.769 | 0.833 | 0.562 | 0.915 | 0.904 | 0.862 | 0.141 | 0.142 | 0.147 | 0.129 | 0.151 |
| LK-2 | 0.851 | 0.557 | 0.408 | 0.508 | 0.461 | 0.179 | – | 0.171 | 0.177 | 0.189 | 0.638 | – | 0.583 | 0.656 | 0.679 | 0.426 | 0.497 | 0.286 | 0.282 | 0.198 |
| LOU-NH91 | 0.53 | 0.59 | 0.473 | 0.524 | 0.496 | 0.284 | 0.307 | 0.317 | 0.321 | 0.314 | 0.853 | 0.793 | 0.712 | 0.746 | 0.691 | 0.794 | 0.644 | 0.718 | 0.585 | 0.66 |
| LU99A | 0.409 | 0.503 | 0.406 | 0.412 | 0.421 | 0.226 | 0.204 | 0.185 | 0.191 | 0.253 | 0.52 | 0.565 | 0.525 | 0.519 | 0.605 | 0.342 | 0.345 | 0.295 | 0.283 | 0.334 |
